Measurements taken from patent US4866058A, “Method for control of hyperlipidemia” (priority 1988, dated 1989).
Where two headings read alike, the source gives them in different places.

What was measured:
[1] = test system: serum cholesterol and serum triglyceride levels; experiment: Testing of normal mice: hypolipidemic activity in CF1 mice; format: in vivo, CF1 male mice; details: for response vs control in vivo at 20 mg/kg/day: Mus musculus
Procedure: The following compounds were tested for their hypolpidemic activity in CF1 mice.
Compounds A-V as defined above, were suspended in an aqueous 1 percent carboxymethylcellulose (CMC) solution and homogenized. Each of the so prepared compounds were administered to a group of six CF1 male mice, each weighing approximately 25 grams, intraperitioneally for 16 days. Each of these compounds were provided in a dosage of 20 mg/kg/d ip. On Days 9 and 16 blood was obtained by tail vein bleeding. The blood serum so obtained was separated by centrifugation for three minutes. Serum cholesterol levels were determined by a modification of the Liebermann-Burchard reaction (Ness, Clin. Chim. Acta., Vol. 10, 229 [1964]). Serum triglyceride levels were determined on Day 16 by use of the Fisher, Hycel Triglyceride Test Kit.
In addition to the above-described treated mice, an untreated control group of six mice were similarly tested on Days 9 and 16 to determine their serum cholesterol and trigylceride blood levels. Based on the results obtained for the untreated control group, the percent control, based on serum cholesterol and serum triglyceride levels of the treated mice compared to the untreated mice, was obtained. Table 1 reports this percent control, including standard deviation, indicating the level of confidence of these numbers.

in vivo = details: mouse, ip
[2] = test system: serum cholesterol and serum triglyceride levels; experiment: Testing of hyperlipidemic mice (atherogenic diet); format: in vivo, CF1 male mice; details: hyperlipidemic CF1 mice, 20 mg/kg/d intraperitoneally, Day 12
Procedure: A group of six CF^1 male mice (about 25 g) were placed on a commercial diet (U.S. Biochemical Corporation Basal Atherogenic Test Diet) which produced a "hyperlipidemic" state. That is, the average serum cholesterol level in the group of treated mice was raised from 122 to 375 mg percent and triglyceride levels were raised from 137 to 367 mg/dL.

serum lipoprotein = experiment: Cholesterol content of serum lipoprotein of treated Sprague-Dawley rats; format: in vivo; details: orally 14 days at 20 mg/kg/day
Excerpt: (§1) A test solution of Compounds A, F, J, M, N and O were suspended in an aqueous solution of 1% CMC, homogenized and administered orally to six Sprague-Dawley male rats, which each weighted approximately 350 grams. Administration of the compounds was by an intubation needle. The rats were each fed with 20 milligrams of Compounds A, F, J, M, N and O per kilogram of body weight per day for 14 days. Similarly, six Sprague-Dawley male rats of approximately the same weight (that used for testing F weighed approximately 160 grams) were fed similar volumes of the same aqueous 1% CMC solution without the active agents, also orally, administered by intubation needle. In addition, as a control, a similar group of six male Sprague-Dawley rats were untreated.
The cholesterol content of serum lipoprotein
of Sprague-Dawley Rats treated
orally for 14 days at 20 mg/kg/day

[3] = LD50 value in mice as single injection IP; details: mouse, in vivo
[4] = test system: Serum cholesterol and triglyceride levels; experiment: Serum testing of normal rats; format: in vivo, Sprague-Dawley male rats; details: 20 mg/kg per day orally
Excerpt: as §1
On Days 7 and 14, blood was obtained from each of the rats of the three groups by tail vein bleeding. The blood obtained was separated by centrifugation for three minutes. Serum cholesterol and triglyceride levels were determined in accordance with the procedure of Example 6.

plasma lipids = details: rats; cited from earlier work
[5] = normal CF1 mice, 20 mg/kg/d ip, Day 16
[6] = 216 h, normal CF1 mice, 20 mg/kg/d ip, Day 9, read-out: Serum Cholesterol, Day 9
[7] = 384 h, normal CF1 mice, 20 mg/kg/d ip, Day 16, read-out: Serum Cholesterol, Day 16
[8] = 384 h, normal CF1 mice, 20 mg/kg/d ip, Day 16, read-out: Serum Triglyceride, Day 16
[9] = ip, 216 h, read-out: Serum Cholesterol, Day 9
[10] = ip, 384 h, read-out: Serum Cholesterol, Day 16
[11] = ip, 384 h, read-out: Serum Triglyceride, Day 16

Compound	response vs control in vivo at 20 mg/kg/day [1, 6] [%]	response vs control in vivo at 20 mg/kg/day [1, 7] [%]	response vs control in vivo at 20 mg/kg/day [1, 8] [%]	also measured
4-(4- -n-butyl)-1,2 dipentylcarbonyl-1,2,4-triazolidine-3,5-dione				Serum Cholesterol, Day 9 ([1]; normal CF1 mice, 20 mg/kg/d ip, Day 9): 69 percent control; Serum Cholesterol, Day 16 [1, 5]: 49 percent control; Serum Triglyceride, Day 16 [1, 5]: 53 percent control
CC(=O)n1[nH]c(=O)n(-c2ccccc2)c1=O [A, 4-phenyl-1-methylcarbonyl-1,2,4-triazolidine-3,5-dione]	67 ± 5	61 ± 6	48 ± 6	LD50 (in vivo): > 500 mg/kg; Serum Cholesterol [2]: 41% of Control; Serum Triglyceride [2]: 40% of Control
CC(=O)n1c(=O)n(-c2ccccc2)c(=O)n1C(C)=O [B, 4-phenyl-1,2-dimethylcarbonyl-1,2,4-triazolidine-3,5-dione]	70 ± 6	64 ± 5	61 ± 5	
CCOC(=O)n1[nH]c(=O)n(-c2ccccc2)c1=O [C, 4-phenyl-1-ethoxycarbonyl-1,2,4-triazolidine-3,5-dione]	73 ± 7	69 ± 5	62 ± 6	
CC(=O)n1[nH]c(=O)n(-c2ccc(Cl)cc2)c1=O [Compound D, 4-(4-chlorophenyl)-1-methylcarbonyl-1,2,4-triazolidine-3,5-dione]	73 ± 4	64 ± 6	55 ± 7	
CCOC(=O)c1nc(=O)n(-c2ccccc2)c(=O)[nH]1 [Compound N, 3-phenyl-6-ethoxycarbonyl-1,3,5-triazine-2,4(1 --H,3 --H)-dione]	63 ± 6	54 ± 5	51 ± 2	VLDL cholesterol (serum lipoprotein): 50% of Control; Serum Cholesterol [2]: 50% of Control; Serum Triglyceride [2]: 46% of Control
CCC(=O)n1c(=O)n(-c2ccc([N+](=O)[O-])cc2)c(=O)n1C(=O)CC [Compound S, 4-(4-nitrophenyl)-1,2 diethylcarbonyl-1,2,4-triazolidine-3,5-dione]	72	36	62	
O=c1[nH][nH]c(=O)n1-c1ccccc1 [E, 4-phenyl-1,2,4-triazolidine-3,5-dione]	71 ± 5	48 ± 3	68 ± 6	
COc1ccc(-n2c(=O)[nH][nH]c2=O)cc1 [F, 4-(4-methoxyphenyl)-1,2,4-triazolidine-3,5-dione]	75 ± 5	56 ± 4	58 ± 3	
CCCCn1c(=O)[nH][nH]c1=O [G, 4-(4-n-butyl)-1,2,4-triazolidine-3,5-dione]	71 ± 6	69 ± 5	79 ± 8	
O=c1[nH][nH]c(=O)n1-c1ccc([N+](=O)[O-])cc1 [H, 4-(4-nitrophenyl)-1,2,4-triazolidine-3,5-dione]	73 ± 5	66 ± 5	47 ± 5	
O=c1[nH][nH]c(=O)n1-c1ccc(Cl)cc1 [J, 4-(4-chlorophenyl)-1,2,4-triazolidine-3,5-dione]	90 ± 5	58 ± 4	43 ± 4	LD50 (in vivo): > 500 mg/kg; Serum Cholesterol [2]: 46% of Control; Serum Triglyceride [2]: 49% of Control
Cn1c(=O)[nH][nH]c1=O [K, 4-methyl-1,2,4-triazolidine-3,5-dione]	88 ± 6	67 ± 5	89 ± 5	
CCOC(=O)C1n2c(=O)n(-c3ccc(Cl)cc3)c(=O)n21 [L, 3-(4-chlorophenyl)-6-ethoxyacarbonyl-1,3,5-triazabicyclo[3.1.0]hexane-2,4-dione]				response vs control in vivo at 20 mg/kg/day [1, 9]: 74 ± 3%; response vs control in vivo at 20 mg/kg/day [1, 10]: 56 ± 5%; response vs control in vivo at 20 mg/kg/day [1, 11]: 66 ± 7%
CCOC(=O)C1n2c(=O)n(-c3ccccc3)c(=O)n21 [M, 3-phenyl-6-ethoxycarbonyl-1,3,5-triazabicyclo[3.1.0]hexane-2,4-dione]				response vs control in vivo at 20 mg/kg/day [1, 9]: 62 ± 6%; response vs control in vivo at 20 mg/kg/day [1, 10]: 57 ± 5%; response vs control in vivo at 20 mg/kg/day [1, 11]: 59 ± 6%; LD50 [3]: > 500 mg/kg; HDL cholesterol (serum lipoprotein): 340% of Control; LDL cholesterol (serum lipoprotein): 67% of Control; VLDL cholesterol (serum lipoprotein): 71% of Control; Serum Cholestrol, Day 7 ([4]; Day 7): 70% of Control; Serum Triglyceride, Day 7 ([4]; Day 7): 36% of Control; Serum Cholestrol, Day 14 ([4]; Day 14): 36% of Control; Serum Triglyceride, Day 14 ([4]; Day 14): 54% of Control; Serum Cholesterol [2]: 46% of Control; Serum Triglyceride [2]: 54% of Control
CCOC(=O)c1nc(=O)n(-c2ccc(Cl)cc2)c(=O)[nH]1 [O, 3-(4-chlorophenyl)-6-ethoxycarbonyl-1,3,5-triazine-2,4(1 --H,3 --H)-dione]	63 ± 4	57 ± 4	55 ± 6	
O=C(O)c1cc(=O)[nH]c(=O)[nH]1 [Orotic acid]				plasma lipids blood level (plasma lipids): decrease the plasma lipids blood level in rats
COc1ccc(-n2c(=O)n(C(C)=O)n(C(C)=O)c2=O)cc1 [P, 4(4-methoxyphenyl)-1,2-dimethylcarbonyl-1,2,4-triazolidine-3,5-dione]	76	57	49	
O=c1[nH][nH]c(=O)[nH]1 [Parent, 1,2,4-triazolidine-3,5-dione]	81	79	73	
COc1ccc(-n2c(=O)n(C(=O)c3ccccc3)n(C(=O)c3ccccc3)c2=O)cc1 [Q, 4.(4-methoxyphenyl)-1,2-diphenylcarbonyl-1,2,4-triazolidine-3,5-dione]	67	86	75	
CCC(=O)n1c(=O)n(-c2ccc(OC)cc2)c(=O)n1C(=O)CC [R, 4.(4-methoxyphenyl)-1,2 diethylcarbonyl-1,2,4-triazolidine-3,5-dione]	62	63	62	
CC(=O)n1c(=O)n(-c2ccc(Cl)cc2)c(=O)n1C(C)=O [U, 4-(4-chlorophenyl)-1,2-dimethylcarbonyl-1,2,4-triazolidine-3,5-dione]	72	51	51	
CCCCCC(=O)n1[nH]c(=O)n(-c2ccc(Cl)cc2)c1=O [V, 4-(4-chlorophenyl)1-pentylcarbonyl (2 --H)-1,2,4-triazolidine-3,5 dione]	77	52	42	
